# In PubChem BioAssay AID687022 (Broad Institute, 2013):
# Active and inactive are the calls of the source.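 How the source made its calls: active means Fitted curve of melting temperature shift crosses the 1.0 threshold at or below the sample's highest valid tested concentration; inconclusive means Flat fit with activity 30 to 70, or invalid fit; inactive means Opposite direction, flat within 30, or no crossing.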
# Molecular target: Fibroblast growth factor 22 (Homo sapiens) (UniProt Q9HCT0)
# Experiment: FGF22 ligand-induced thermal stabilization – biophysical, thermal shift, cherry-pick, FGF22 synaptogenesis inhibitor project, dose response (AID 687022)
# Conditions: recombinant FGF22 thermal shift, SYPRO orange melting
# Sequence of Fibroblast growth factor 22 (Homo sapiens) (Q9HCT0 whole entry, looked up): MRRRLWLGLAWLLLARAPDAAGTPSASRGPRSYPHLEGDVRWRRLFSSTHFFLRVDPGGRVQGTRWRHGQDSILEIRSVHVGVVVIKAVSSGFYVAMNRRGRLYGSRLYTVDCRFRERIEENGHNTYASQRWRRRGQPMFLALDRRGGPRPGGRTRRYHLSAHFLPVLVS
row,Compound,AbsAC1 (concentration giving Tm-shift threshold 1.0)
1,Oc1ccc(-c2nc3ccccc3s2)c(O)c1,5.15 µM
2,COc1cccc(NC(=O)N(C)C[C@@H]2Oc3cc(-c4ccccc4F)ccc3S(=O)(=O)N([C@@H](C)CO)C[C@H]2C)c1,16.3 µM
3,C/C=C/c1ccc2c(c1)O[C@@H](CN(C)C(=O)Nc1cccc(F)c1)[C@@H](C)CN([C@@H](C)CO)S2(=O)=O,7.47 µM
4,O=C(O)c1ccc(NC(=O)c2cccc(S(=O)(=O)Nc3ccc(C(=O)O)cc3)c2)cc1,> 5 µM (inactive)
5,CN(Cc1c(C(=O)N/N=C/c2ccc(O)cc2)nnn1-c1nonc1N)c1ccccc1,0.867 µM
6,COc1ccc2o/c(=N\O)c(C(=O)Nc3ccc(C)cc3)cc2c1,28 µM
7,COc1ccc(C(=O)N2CCCCC2)cc1S(=O)(=O)Nc1cccc(C(=O)O)c1,9.12 µM
8,O=C(N/N=C/c1ccc(O)c(O)c1)N/N=C/c1ccc(O)c(O)c1,7.88 µM
9,NS(=O)(=O)c1ccc(NC(=O)Nc2cccc(Cl)c2)cc1,16.8 µM
10,O=C(N/N=C/c1cccc(Oc2ccccc2)c1)c1cccc(O)c1,3.12 µM
11,COc1cccc(S(=O)(=O)N2C[C@@H](O)COC[C@@H]3O[C@@H](CC(=O)Nc4ccccc4)CC[C@H]32)c1,3.38 µM
12,O=C(Nc1ccc(S(=O)(=O)NCc2ccccc2)cc1)c1ccccc1[N+](=O)[O-],12 µM
13,CC(=O)Nc1ccc(S(=O)(=O)NCCc2c[nH]c3ccc(C)cc23)cc1,21.6 µM
14,CCC(C)n1c(O)c(C(c2ccccn2)c2c(O)n(C(C)CC)c(=S)[nH]c2=O)c(=O)[nH]c1=S (configuration not stated),20.7 µM
15,O=C(CNC(=O)c1cccc(Br)c1)N/N=C/c1cc(Br)cc(Br)c1O,> 38 µM (inactive)
16,CC(C)CC(=O)Nc1ccc(C(=O)CN2C(=O)NC3(CCOc4ccccc43)C2=O)cc1 (configuration not stated),6.42 µM
17,CCc1nnc(NS(=O)(=O)c2ccc(NC(=O)c3ccc(Br)cc3)cc2)s1,5.81 µM
18,C[C@@H]1CN([C@@H](C)CO)S(=O)(=O)c2ccc(-c3ccc(F)cc3)cc2O[C@@H]1CN(C)C(=O)Nc1ccccc1F,> 38 µM (inactive)
19,C[C@@H]1CN([C@@H](C)CO)S(=O)(=O)c2ccc(-c3cccc(C#N)c3)cc2O[C@@H]1CN(C)C(=O)Nc1cc(F)ccc1F,> 38 µM (inactive)

row,Compound,AbsAC1 (concentration giving Tm-shift threshold 1.0)
1,Cc1cccc(S(=O)(=O)N2C[C@@H](O)COC[C@H]3O[C@H](CC(=O)Nc4ccc(-c5ccccc5)cc4)CC[C@@H]32)c1,16.6 µM
2,O=C(CCNC(=O)c1ccccc1Cl)Nc1nc2ccc(F)cc2s1,9.92 µM
3,COc1ccccc1NC(=O)N[C@H]1CC[C@H](CCn2cc(-c3ccccc3OC)nn2)O[C@H]1CO,4.01 µM
4,CC(=O)c1ccc(OCCCC(=O)Nc2ccc(S(=O)(=O)N3CCOCC3)cc2)cc1,> 38 µM (inactive)
5,O=C(CN(Cc1ccccc1)S(=O)(=O)c1ccccc1)N/N=C/c1ccccc1C(=O)O,18.9 µM
6,CCOc1ccc(NS(=O)(=O)c2ccc(C(=O)NNC(=O)c3ccccc3O)cc2)cc1,> 38 µM (inactive)
7,O=C(Nc1ccc(Cl)cc1)N[C@@H]1CC[C@@H](CCNS(=O)(=O)c2ccccc2F)O[C@H]1CO,5.88 µM
8,Cn1ncc2c(Nc3ccc(Cl)c(Cl)c3)ncnc21,24.9 µM
9,O=C(N/N=C/c1c(O)ccc2ccccc12)c1[nH]ncc1Br,23.7 µM
10,COc1ccc(-c2csc(NC(=O)CN3C(=O)C4CCCCC4C3=O)n2)c(OC)c1 (configuration not stated),14.7 µM
11,COc1ccc(-c2nc(-c3ccc(O)cc3O)cs2)cc1OC,5.56 µM
12,O=C(Nc1nc(-c2ccccn2)cs1)c1cccc(S(=O)(=O)N2CCOCC2)c1,9.23 µM
13,COc1ccc(-c2ccc([C@@H]3[C@@H](CO)N4CCCCN(C(=O)c5ccc(F)cc5)C[C@@H]34)cc2)cc1,3.54 µM
14,Cc1ccc(NC(=O)O/N=C/c2cccc([N+](=O)[O-])c2)cc1,17.8 µM
15,Cc1[nH]c2ccccc2c1C(=O)NS(=O)(=O)Nc1ccc(Cl)cc1,3.06 µM
16,Cc1ccc(NC(=O)c2sc3ncn(CC(=O)N4CCN(c5ccccn5)CC4)c(=O)c3c2C)cc1F,10.6 µM
17,N#Cc1cccc(NC(=O)c2ccc(S(=O)(=O)N3CCOCC3)cc2)c1,4 µM
18,CCc1nnc(NS(=O)(=O)c2ccc(NC(=S)NC(=O)/C=C/c3ccc([N+](=O)[O-])cc3)cc2)s1,4.73 µM
19,NS(=O)(=O)c1cccc(NC(=O)COC(=O)c2cc([N+](=O)[O-])ccc2N2CCCC2)c1,5.86 µM

row,Compound,AbsAC1 (concentration giving Tm-shift threshold 1.0)
1,NC(=O)c1ccsc1NC(=O)COC(=O)Cc1c[nH]c2ccccc12,13.9 µM
2,O=C(Nc1ccccc1)O/N=C/c1ccc(F)cc1,20.3 µM
3,O=[N+]([O-])c1ccc(N/N=C/c2ccc[nH]2)cc1,8.39 µM
4,O=C(NN=Cc1ccc(O)cc1)c1ccccc1NS(=O)(=O)c1cccs1,5.76 µM
5,O=C(Nc1ccc(F)cc1)N[C@H]1CC[C@@H](CCn2cc(-c3ccccc3F)nn2)O[C@H]1CO,10.5 µM
6,Cc1cc(C(=O)N/N=C/c2c[nH]c3ccccc23)cs1,2.23 µM
7,O=C(C[C@@H]1CC[C@H]2[C@@H](COC[C@@H](O)CN2S(=O)(=O)c2cccc(F)c2)O1)Nc1ccccc1,3.53 µM
8,COc1ccccc1NC(=O)Nc1cccc(NC(C)=O)c1,7.52 µM
9,C/C(=N\NC(=O)c1nnn(-c2nonc2N)c1CSc1ccc(C)cc1)c1cccnc1,37.4 µM
10,O=C(C[C@H]1CC[C@@H]2[C@H](COC[C@H](O)CN2S(=O)(=O)c2cccc(F)c2)O1)Nc1ccccc1,3.48 µM
11,Cc1ccc(Cl)cc1N1CCN(C(=O)Cc2c(C(=O)O)[nH]c3ccc(Cl)cc23)CC1,4.47 µM
12,O=C(Nc1ccc(C(=O)O)cc1)Nc1ccc([N+](=O)[O-])cc1,5.57 µM
13,O=C(NNC(=O)C1CCN(S(=O)(=O)c2ccccc2C(F)(F)F)CC1)c1ccccc1O,10.4 µM
14,O=[N+]([O-])c1ccc2nc(NS(=O)(=O)c3ccccc3[N+](=O)[O-])sc2c1,6.33 µM
15,Cc1nn(-c2ccccc2)c(C)c1/C=N/NC(=O)c1cc(-c2cccs2)[nH]n1,8.19 µM
16,CC(=O)Nc1ccc(S(=O)(=O)N(CCc2ccccc2)CC(=O)N/N=C/c2ccc(C(=O)O)cc2)cc1,7.42 µM
17,CCOC(=O)c1c(C)[nH]c(C)c1C(=O)COC(=O)/C=C/c1ccccc1[N+](=O)[O-],23.9 µM
18,COc1ccc(OC)c(Nc2ccc(Nc3cc(OC)ccc3OC)nn2)c1,8.4 µM
19,O=C(O)c1cccc(NS(=O)(=O)c2ccc(Cl)c(C(=O)Nc3cccc([N+](=O)[O-])c3)c2)c1,11.9 µM
